Measured values as given in paper PMC7171677 (ACS infectious diseases, 2019).
≈ marks a conversion by molar mass, not a printed value. Entries after “also recorded” stand apart in the source; their conditions may differ. Read-outs that look alike come from different tables or passages of the source.

What was measured:
[1] = tested on: PfENT1-expressing fui1Δ yeast; test: 5-FUrd inhibition of PfENT1-expressing fui1Δ yeast growth; assay type: cell-based; settings: Saccharomyces cerevisiae, read-out: IC50 for inhibition of yeast growth
[2] = biological target: PvENT1 (Plasmodium vivax, UniProt A5K8B0); test: [3H]adenosine uptake into PvENT1-expressing yeast; assay type: cell-based
Sequence of PvENT1 (A5K8B0 whole entry): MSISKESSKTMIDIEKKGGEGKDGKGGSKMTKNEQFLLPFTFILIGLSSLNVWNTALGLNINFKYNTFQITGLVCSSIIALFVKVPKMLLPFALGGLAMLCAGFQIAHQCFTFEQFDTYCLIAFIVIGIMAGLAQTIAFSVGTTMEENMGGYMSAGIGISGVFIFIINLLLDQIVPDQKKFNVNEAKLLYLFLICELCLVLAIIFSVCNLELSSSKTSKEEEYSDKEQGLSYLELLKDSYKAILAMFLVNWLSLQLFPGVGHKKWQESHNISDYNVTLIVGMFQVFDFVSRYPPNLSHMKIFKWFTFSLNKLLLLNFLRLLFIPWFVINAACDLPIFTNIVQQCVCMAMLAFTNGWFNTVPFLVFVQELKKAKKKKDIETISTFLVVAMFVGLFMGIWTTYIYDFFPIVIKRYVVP

[3] = biological target: T1, PfENT1 (Plasmodium falciparum, UniProt Q8IDM6); test: Yeast Kill Assay; assay type: cell-based
T1 sequence (Q8IDM6 1-422): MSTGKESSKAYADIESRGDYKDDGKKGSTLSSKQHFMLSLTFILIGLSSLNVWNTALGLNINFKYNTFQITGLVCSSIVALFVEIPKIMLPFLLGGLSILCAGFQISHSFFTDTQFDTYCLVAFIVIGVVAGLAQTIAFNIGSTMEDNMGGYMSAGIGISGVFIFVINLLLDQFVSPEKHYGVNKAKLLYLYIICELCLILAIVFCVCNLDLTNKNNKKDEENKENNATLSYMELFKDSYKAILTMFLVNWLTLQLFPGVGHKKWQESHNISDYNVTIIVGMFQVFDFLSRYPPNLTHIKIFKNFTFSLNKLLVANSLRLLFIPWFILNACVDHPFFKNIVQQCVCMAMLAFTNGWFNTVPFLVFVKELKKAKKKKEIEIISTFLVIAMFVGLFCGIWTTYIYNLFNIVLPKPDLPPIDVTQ

[4] = Kinetic solubility; assay type: physicochemical; settings: phosphate buffered saline, pH 7.4, aqueous buffer, kinetic from dmso stock
[5] = biological target: human serum albumin (Homo sapiens, UniProt P02768); test: HSA column binding; assay type: in vitro ADME
Sequence of human serum albumin (P02768 25-609): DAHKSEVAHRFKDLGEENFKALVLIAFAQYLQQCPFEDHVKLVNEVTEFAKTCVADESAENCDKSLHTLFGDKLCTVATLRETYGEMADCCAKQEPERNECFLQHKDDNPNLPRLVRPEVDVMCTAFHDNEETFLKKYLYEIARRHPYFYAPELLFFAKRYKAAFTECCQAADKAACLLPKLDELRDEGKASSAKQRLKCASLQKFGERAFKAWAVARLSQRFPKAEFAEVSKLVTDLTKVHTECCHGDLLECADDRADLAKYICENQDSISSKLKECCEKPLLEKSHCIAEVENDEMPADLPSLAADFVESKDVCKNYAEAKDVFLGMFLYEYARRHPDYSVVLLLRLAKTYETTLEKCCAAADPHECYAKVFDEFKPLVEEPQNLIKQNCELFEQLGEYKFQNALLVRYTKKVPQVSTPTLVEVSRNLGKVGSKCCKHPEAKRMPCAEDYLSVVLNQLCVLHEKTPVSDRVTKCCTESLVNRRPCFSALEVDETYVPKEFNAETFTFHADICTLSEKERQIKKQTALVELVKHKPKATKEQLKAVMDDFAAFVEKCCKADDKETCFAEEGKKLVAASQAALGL

[6] = biological target: PbENT1 (Plasmodium berghei, UniProt A0A509AYF4); test: [3H]adenosine uptake into PbENT1-expressing yeast; assay type: cell-based
Sequence of PbENT1 (A0A509AYF4 whole entry): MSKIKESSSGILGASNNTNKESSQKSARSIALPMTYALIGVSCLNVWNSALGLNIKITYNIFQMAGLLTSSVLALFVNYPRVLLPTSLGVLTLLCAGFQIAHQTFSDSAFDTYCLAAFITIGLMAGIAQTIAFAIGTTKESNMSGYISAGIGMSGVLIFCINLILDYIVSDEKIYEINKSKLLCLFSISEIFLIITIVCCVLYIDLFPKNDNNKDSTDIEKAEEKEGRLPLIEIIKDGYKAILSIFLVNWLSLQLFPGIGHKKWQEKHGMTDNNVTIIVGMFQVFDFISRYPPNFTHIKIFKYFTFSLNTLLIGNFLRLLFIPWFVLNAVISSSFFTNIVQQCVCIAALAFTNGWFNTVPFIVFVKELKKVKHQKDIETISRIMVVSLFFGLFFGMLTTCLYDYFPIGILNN

[7] = biological target: T2, hENT1 (Homo sapiens, UniProt Q99808); test: [3H]adenosine uptake into human RBC; assay type: cell-based; settings: for hENT1 [3H]adenosine uptake into RBC IC50: mean ± SD, NE = no effect at 100 μM
T2 sequence (Q99808 1-456): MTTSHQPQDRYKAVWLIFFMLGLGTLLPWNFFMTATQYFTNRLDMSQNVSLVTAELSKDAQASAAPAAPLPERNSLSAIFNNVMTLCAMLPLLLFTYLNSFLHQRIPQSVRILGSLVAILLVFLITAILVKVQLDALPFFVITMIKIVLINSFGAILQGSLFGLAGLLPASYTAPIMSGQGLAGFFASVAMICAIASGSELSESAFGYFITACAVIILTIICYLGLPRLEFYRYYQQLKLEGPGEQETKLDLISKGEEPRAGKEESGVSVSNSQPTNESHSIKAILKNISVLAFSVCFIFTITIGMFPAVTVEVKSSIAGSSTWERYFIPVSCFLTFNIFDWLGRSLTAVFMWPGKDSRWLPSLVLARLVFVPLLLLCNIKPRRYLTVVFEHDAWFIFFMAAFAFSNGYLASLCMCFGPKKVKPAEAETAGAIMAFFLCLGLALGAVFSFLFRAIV

[8] = tested on: Dd2 strain P. falciparum parasites; test: P. falciparum parasite proliferation, Dd2 strain; assay type: cell-based, Plasmodium falciparum
[9] = in vitro; assay type: cell-based; settings: human
[10] = Property Forecast Index; assay type: physicochemical; settings: chromatographic log D7.4 + aromatic ring count
[11] = biological target: T1, PfENT1; test: Yeast Kill Assay; assay type: cell-based; remark: listed apart in the source
[12] = tested on: HB3 strain P. falciparum parasites; test: P. falciparum parasite proliferation, HB3 strain; assay type: cell-based; settings: Plasmodium falciparum, HB3, read-out: HB3 parasite proliferation IC50
[13] = tested on: 3D7 strain P. falciparum parasites; test: P. falciparum parasite proliferation, 3D7 strain; assay type: cell-based; settings: Plasmodium falciparum, 3D7, 48 h, read-out: 3D7 parasite proliferation IC50
[14] = biological target: T1, PfENT1; test: [3H]adenosine uptake into PfENT1-expressing yeast; assay type: cell-based
[15] = biological target: T1, PfENT1; test: Yeast HTS Growth Assay
[16] = tested on: PfENT1-KO (pfent1Δ) parasites in the Dd2 background; test: P. falciparum parasite proliferation, PfENT1-knockout; assay type: cell-based, Plasmodium falciparum; settings: for IC50: Plasmodium falciparum, DD2, read-out: PfENT1-KO parasite proliferation IC50
[17] = tested on: 7G8 strain P. falciparum parasites; test: P. falciparum parasite proliferation, 7G8 strain; assay type: cell-based; settings: Plasmodium falciparum, 7G8, read-out: 7G8 parasite proliferation IC50
[18] = biological target: T3, hFNT (Homo sapiens, UniProt Q8NBI5); test: [3H]hypoxanthine uptake into human RBC; assay type: cell-based; settings: mean ± SD; 15 minutes; NE = no effect at 100 μM
T3 sequence (Q8NBI5 1-491): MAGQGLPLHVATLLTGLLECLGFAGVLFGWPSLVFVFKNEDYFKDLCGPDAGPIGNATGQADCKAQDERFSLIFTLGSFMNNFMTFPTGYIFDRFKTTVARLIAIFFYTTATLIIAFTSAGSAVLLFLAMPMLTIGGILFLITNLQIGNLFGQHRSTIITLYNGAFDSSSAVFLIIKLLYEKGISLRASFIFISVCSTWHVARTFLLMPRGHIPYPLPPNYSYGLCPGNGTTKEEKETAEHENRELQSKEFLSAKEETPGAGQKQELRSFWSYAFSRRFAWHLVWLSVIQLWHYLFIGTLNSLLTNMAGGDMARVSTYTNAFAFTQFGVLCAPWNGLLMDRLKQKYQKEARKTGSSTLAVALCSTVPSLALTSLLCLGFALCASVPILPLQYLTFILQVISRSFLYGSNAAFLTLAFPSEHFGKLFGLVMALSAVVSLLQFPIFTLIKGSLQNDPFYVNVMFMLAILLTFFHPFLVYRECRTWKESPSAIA

[19] = Plasmodium falciparum, DD2, read-out: Dd2 parasite proliferation IC50, mean ± SD

Compound	IC50 [2] [µM]	IC50 [3] [µM]	solubility at 1 h [4] [mg/mL]	HSA Column binding [5] [%]	IC50 [6] [µM]	IC50 [7] [µM]	IC50 [8, 19] [µM]	IC50 at 48 h [9] [µM]	PFI [10]	IC50 [11] [µM]	IC50 [12] [µM]	IC50 [13] [µM]	IC50 [14] [µM]	EC50 [15] [µM]	IC50 [16] [µM]	IC50 [17] [µM]	hFNT [3H]hypoxanthine uptake into RBC IC50 [18]	further results
O=c1[nH]c(=O)n([C@@H]2O[C@H](CO)[C@@H](O)[C@H]2O)cc1F [5-FUrd, 5-fluorouridine]	–	–	–	–	–	–	–	–	–	–	–	–	–	–	–	–	–	IC50 [1]: 4.8 µM
COc1ccc(-c2nc(C(=O)Nc3cccc(-c4nnc5n4CCCCC5)c3)cs2)cc1OC [GSK-1, 2-(3,4-Dimethoxyphenyl)-N-[3-(6,7,8,9-tetrahydro-5H-[1,2,4]triazolo[4,3-a]azepin-3-yl)phenyl]-1,3-thiazole-4-carboxamide]	0.14 ± 0.07	0.54 ± 0.2	0.0105 (≈ 22.1 µM)	94	0.13 ± 0.05	0.99 ± 0.81	0.11 ± 0.009	> 100	8.8	0.63	0.34 ± 0.1	0.78 ± 0.2	0.12 ± 0.08	3.16	17 ± 4.8	0.48 ± 0.2	–	–
CCc1nnc(NC(=O)c2nc(-c3ccc(Cl)cc3)n3c2CCCCC3)s1 [GSK-2, 3-(4-Chlorophenyl)-N-(5-ethyl-1,3,4-thiadiazol-2-yl)-6,7,8,9-tetrahydro-5H-imidazo[1,5-a]azepine-1-carboxamide]	0.04 ± 0.03	0.11 ± 0.04	0.0025 (≈ 6.22 µM)	97	0.05 ± 0.03	24.5 ± 24.8	1.89 ± 0.2	> 100	9.6	< 0.08	3.55 ± 0.7	2.25 ± 0.4	0.03 ± 0.03	0.25	2.66	4.52 ± 0.1	did not inhibit	–
O=C(Nc1ccccc1C(=O)NC1CC1)c1cccc(N2CCCC2=O)c1 [GSK-3, N-Cyclopropyl-2-{[3-(2-oxo-1-pyrrolidinyl)benzoyl]amino}benzamide]	0.04 ± 0.01	0.46 ± 0.3	0.112 (≈ 308 µM)	84	0.07 ± 0.04	72.4 ± 19.3	0.59 ± 0.05	> 100	6	0.63	2.21 ± 0.6	2.38 ± 0.5	0.03 ± 0.01	2.51	–	6.08 ± 1.3	–	PfENT1-KO parasite proliferation IC50 ([16]; 75 μM hypoxanthine, NE = no effect at 74.2 μM, N=1 for GSK-2 and GSK-5): Low activity/NE^e
Cc1oc(-c2ccccc2)nc1C(=O)NCCN1CCCCCC1=O [GSK-4, 5-Methyl-N-[2-(2-oxo-1-azepanyl)ethyl]-2-phenyl-1,3-oxazole-4-carboxamide]	0.02 ± 0.04	0.43 ± 0.3	0.156 (≈ 457 µM)	92	0.01 ± 0.01	51 ± 27.7	1.9 ± 0.4	> 100	6.5	1.26	6.16 ± 2.5	6.2 ± 1.9	0.02 ± 0.01	3.98	29.4 ± 0.5	8.44 ± 2.4	did not inhibit	–
CC(=O)Nc1nc(-c2c(F)cccc2F)cs1 [GSK-5, N-[4-(2,6-Difluorophenyl)-1,3-thiazol-2-yl]acetamide]	2.71 ± 0.25	4 ± 1.3	0.016 (≈ 62.9 µM)	90	3.09 ± 2.7	–	10.6 ± 2.1	> 100	5.7	6.31	9.09 ± 4.5	8.72 ± 1.6	2.59 ± 2.36	63.1	10.8	16.1 ± 5.5	–	hENT1 [3H]adenosine uptake into RBC IC50 [7]: did not inhibit; also recorded: Low activity/NE^d
CCn1cnnc1C1CCN(C(=O)c2cn3ccc(C)cc3n2)CC1 [GSK-6, [4-(4-Ethyl-4H-1,2,4-triazol-3-yl)-1-piperidinyl](7-methylimidazo[1,2-a]pyridin-2-yl)methanone]	–	1.2 ± 1.1	> 0.133	48	–	–	1.89	> 100	4.2	1.26	19.7 ± 4.1	10.3 ± 4.7	3.98 ± 1.35	10	> 100	19 ± 3.5	did not inhibit	PvENT1 [3H]Ado uptake IC50 ([2]; mean ± SD, yeast expressing P. vivax ENT1, NE = no effect at 100 μM): did not inhibit; PbENT1 [3H]Ado uptake IC50 ([6]; mean ± SD, yeast expressing P. berghei ENT1, NE = no effect at 100 μM): did not inhibit; hENT1 [3H]adenosine uptake into RBC IC50 [7]: did not inhibit; IC50 ([8]; read-out: Dd2 parasite proliferation IC50, mean ± SD): 3.3 ± 1.7 µM
